The nature of one data set: solvent given as SMILES. The following applies: in C1CCCCC1.
As for `N#C/C(=C\c1ccc(Cl)cc1)c1nc2ccccc2s1`, the emission maximum turned out to be 390 nm.
Consider `CN(C)c1ccc(C#Cc2nc(-c3ccccc3)nc3ccccc23)cc1`, for which the emission maximum turned out to be 423 nm.
Compound `CN(C)c1ccc(-c2c(/C=C3/C=Cc4ccccc4N3C)c(=O)c2=O)cc1` came in with an emission maximum of 427 nm.
With `O=P1(c2ccccc2)c2ccccc2-c2sc3ccccc3c21` (centres undefined), the emission maximum is on record as 417 nm.
As for `CC1(C)CC(NCc2ccc3ccc4cccc5ccc2c3c45)CC(C)(C)N1[O]`, the emission maximum is listed as 375 nm.
Turning to `COc1ccc2c(c1)-c1cc(OC)ccc1C2=O`, the emission maximum amounted to 490 nm.
In turn, `N#Cc1ccc(N(c2ccc(C#N)cc2)c2ccc3c4cccc5c(N(c6ccc(C#N)cc6)c6ccc(C#N)cc6)ccc(c6cccc2c63)c54)cc1` gave an emission maximum of 494 nm.
As to `CCCC[Si](C)(C)c1cccc2ccccc12`, the emission maximum came out at 329 nm.

Still in this data set, the particulars now being: in C1CCOC1.
In turn, `COc1ccc2cc([C@H](C)C(=O)O)ccc2c1` displayed an emission maximum of 351.7 nm.
In turn, `CN(C)c1ccc(C#Cc2nc(-c3ccccc3)nc3ccccc23)cc1` yielded an emission maximum of 549 nm.
In turn, `CN(C)c1ccc(/C=C/c2ccnc(/C=C/c3ccc(N(C)C)cc3)n2)cc1` came in with an emission maximum of 484 nm.
For `CSc1nc(-c2ccc(-n3c4ccccc4c4ccccc43)cc2)cc(-c2ccc(-n3c4ccccc4c4ccccc43)cc2)n1`, the emission maximum worked out at 447 nm.
In turn, `N#Cc1c(N2CCCCC2)cc(-c2cccc3ccccc23)c2c1-c1ccccc1C2` displayed an emission maximum of 442 nm.
With `N#Cc1ccc(N(c2ccc(C#N)cc2)c2ccc3c4cccc5c(N(c6ccc(C#N)cc6)c6ccc(C#N)cc6)ccc(c6cccc2c63)c54)cc1`, the emission maximum is reported as 531 nm.
Same read-out and setting: in the case of `NS(=O)(=O)c1ccc(N2N=C(c3ccc(O)cc3)CC2c2ccc(Br)cc2)cc1` (centres undefined) it was 417 nm.
Consider `CCC1(CC)c2ccccc2-c2c1c1c(c3c2C(CC)(CC)c2cc(-c4cccs4)ccc2-3)C(CC)(CC)c2cc(N(c3ccccc3)c3ccccc3)ccc2-1`, for which the emission maximum stood at 422 nm.

The data set is the same for the next values; noted with them: in C1COCCO1.
The compound `COC(=O)c1ccc(/C=C2\N=C(c3ccc(OC)c(OC)c3)NC2=O)cc1` yielded an emission maximum of 478 nm.
As for `NS(=O)(=O)c1ccc(N2N=C(c3ccc(O)cc3)CC2c2ccc(Br)cc2)cc1` (centres undefined), the emission maximum was found to be 417 nm.

The same data set, now with this note: in CC#N.
The compound `COc1ccc2cc([C@H](C)C(=O)O)ccc2c1` yielded an emission maximum of 352.7 nm.
As to `Nc1n[n+]([O-])c2ccccc2[n+]1[O-]`, the emission maximum is given as 505 nm.
Regarding `CN(C)c1ccc(C#Cc2nc(-c3ccccc3)nc3ccccc23)cc1`, the emission maximum is given as 570 nm.
As for `O=P1(c2ccccc2)c2ccccc2-c2sc3ccccc3c21` (centres undefined), the emission maximum is 427 nm.
In turn, `CN(C)c1ccc(/C=C/c2ccnc(/C=C/c3ccc(N(C)C)cc3)n2)cc1` yielded an emission maximum of 513 nm.
In turn, `CC1(C)CC(NCc2ccc3ccc4cccc5ccc2c3c45)CC(C)(C)N1[O]` yielded an emission maximum of 376 nm.
In turn, `O=C1c2ccccc2-c2cnccc21` had an emission maximum of 516.76 nm.
Still for that read-out and setting: in the case of `COc1ccc2c(c1)-c1cc(OC)ccc1C2=O` it was 514 nm.
With `N#Cc1ccc(-c2pc3ccccc3s2)cc1` (centres undefined), the emission maximum came to 433 nm.
Same read-out and setting: in the case of `N#Cc1ccc(N(c2ccc(C#N)cc2)c2ccc3c4cccc5c(N(c6ccc(C#N)cc6)c6ccc(C#N)cc6)ccc(c6cccc2c63)c54)cc1` it was 535 nm; in that of `NS(=O)(=O)c1ccc(N2N=C(c3ccc(O)cc3)CC2c2ccc(Br)cc2)cc1` (centres undefined), 417 nm.
In turn, `CCN(CC)c1ccc(-c2ccc(-c3nc(N4CCOCC4)c4ccccc4n3)s2)cc1` had an emission maximum of 544 nm.
On to `COc1ccc(C#Cc2ccccc2C#Cc2ccc(OC)cc2)cc1`, for which the emission maximum amounted to 380 nm.

The data set is the same for the next values; noted with them: in CC(C)=O.
For `CN(C)c1ccc(/C=C/c2ccnc(/C=C/c3ccc(N(C)C)cc3)n2)cc1`, the emission maximum is 523 nm.

Still in this data set, the particulars now being: in CC(C)O.
Regarding `COc1ccc2cc([C@H](C)C(=O)O)ccc2c1`, the emission maximum is 351.3 nm.
On the same count and under the same terms, in the case of `NS(=O)(=O)c1ccc(N2N=C(c3ccc(O)cc3)CC2c2ccc(Br)cc2)cc1` (centres undefined) it was 423 nm.

The data set is the same for the next values; noted with them: in CCCCCC.
`O=C1c2ccccc2-c2cnccc21`: the emission maximum stood at 464.17 nm.
Regarding `CC1=C2C=CC(C)=[N+]2[B-](F)(F)n2cccc21`, the emission maximum turned out to be 504 nm.

The same data set, now with this note: in CCCCCCC.
On to `CN(C)c1ccc(/C=C/c2ccnc(/C=C/c3ccc(N(C)C)cc3)n2)cc1`, for which the emission maximum was determined as 433 nm.

The data set is the same for the next values; noted with them: in CCCCCCCCCCCCCC
The compound `CCCCCCCCCCc1cc(-c2cc(CCCCCCCCCC)c(-c3cccs3)s2)sc1-c1cccs1` yielded an emission maximum of 481 nm.

The same data set, now with this note: in CCCCO.
Compound `COc1ccc2cc([C@H](C)C(=O)O)ccc2c1` yielded an emission maximum of 351.4 nm.

The data set is the same for the next values; noted with them: in CCO.
Turning to `COc1ccc2cc([C@H](C)C(=O)O)ccc2c1`, the emission maximum worked out at 352.3 nm.
For `CCN(CC)c1ccc2cc3c([o+]c2c1)/C(=C/Nc1ccccc1)CCC3`, the emission maximum was found to be 647 nm.
Same read-out and setting: with `O=P1(c2ccccc2)c2ccccc2-c2sc3ccccc3c21` (centres undefined) the figure was 434 nm; with `CC1(C)C(/C=C/c2cc3ccc(O)cc3oc2=O)=[N+](CCCS(=O)(=O)[O-])c2ccccc21`, 642 nm.
On the same count and under the same terms, in the case of `COc1ccc2c(c1)-c1cc(OC)ccc1C2=O` it was 552 nm.
The compound `Cc1cc(=O)oc2ccc3ccc(-c4cn(Cc5ccccc5)nn4)cc3c12` displayed an emission maximum of 420 nm.
`NS(=O)(=O)c1ccc(N2N=C(c3ccc(O)cc3)CC2c2ccc(Br)cc2)cc1` (centres undefined) came in with an emission maximum of 428 nm.
In turn, `N#CC(C#N)=Cc1ccc(-c2cccc(-c3nc4ccccc4s3)c2O)o1` showed an emission maximum of 631 nm.

The same data set, now with this note: in CCOC(C)=O.
`NS(=O)(=O)c1ccc(N2N=C(c3ccc(O)cc3)CC2c2ccc(Br)cc2)cc1` (centres undefined) displayed an emission maximum of 415 nm.

Still in this data set, the particulars now being: in CN(C)C=O.
In the case of `CSc1nc(-c2ccc(-n3c4ccccc4c4ccccc43)cc2)cc(-c2ccc(-n3c4ccccc4c4ccccc43)cc2)n1`, the emission maximum worked out at 497 nm.
Still for that read-out and setting: in the case of `NS(=O)(=O)c1ccc(N2N=C(c3ccc(O)cc3)CC2c2ccc(Br)cc2)cc1` (centres undefined) it was 422 nm.

Staying with this data set, now noted: in CO.
In turn, `COc1ccc2cc([C@H](C)C(=O)O)ccc2c1` gave an emission maximum of 352.2 nm.
The same measure, in the same setting: in the case of `O=C(O)CCCCCn1/c(=C/C=C/C2=[N+](CCCCCC(=O)O)c3cccc4cccc2c34)c2cccc3cccc1c32` it was 773 nm.
`N#C/C(=C\c1ccc(Cl)cc1)c1nc2ccccc2s1` gave an emission maximum of 430 nm.
The compound `CC[n+]1c(C=C2C(=O)C(C=C3N(C)c4ccccc4C3(C)C)=C2[O-])sc2ccccc21` registered an emission maximum of 651 nm.

Values taken from the Deep4Chem optical property database.
